Results from PubChem BioAssay (NCI).
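How tested: cells in 96-well plates exposed to compound for 48 hours at five concentrations. GI50 is the concentration that inhibits growth by half. TGI denotes the concentration required for complete inhibition of growth.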 Where a SMILES comes first, the peptide text is derived from it. The star is where a group is joined. Bn = c1ccc(C*)cc1

Legend:
Experiment in all cases: NCI-60 cell line screen, 48 h
SK-MEL-28 melanoma = tested on: SK-MEL-28 melanoma
OVCAR-8 ovarian = tested on: OVCAR-8 ovarian
SF-295 CNS = tested on: SF-295 CNS
HS 578T breast = tested on: HS 578T breast
MCF7 breast = tested on: MCF7 breast
SNB-19 CNS = tested on: SNB-19 CNS
786-0 renal = tested on: 786-0 renal
U251 CNS = tested on: U251 CNS
IGROV1 ovarian = tested on: IGROV1 ovarian
LOX IMVI melanoma = tested on: LOX IMVI melanoma

Compound	TGI (SK-MEL-28 melanoma)	TGI (OVCAR-8 ovarian)	TGI (SF-295 CNS)	TGI (HS 578T breast)	TGI (MCF7 breast)	TGI (SNB-19 CNS)	TGI (786-0 renal)	TGI (U251 CNS)	TGI (IGROV1 ovarian)	TGI (LOX IMVI melanoma)	GI50 (SK-MEL-28 melanoma)	GI50 (OVCAR-8 ovarian)	GI50 (SF-295 CNS)	GI50 (HS 578T breast)	GI50 (IGROV1 ovarian)	GI50 (MCF7 breast)	GI50 (SNB-19 CNS)	GI50 (U251 CNS)	GI50 (LOX IMVI melanoma)
CC(C)(C)OC(=O)n1c(-c2ccccc2F)cc(=O)c2cc3c(cc21)OCO3	> 100 µM	20.4 µM	> 100 µM	1.41 µM	> 100 µM	> 100 µM	> 44.3 µM	> 32.9 µM											
O=[N+]([O-])c1ccc(C2=Nc3ccccc3SC(c3ccccc3)C2)cc1 (stereo not given)	41.6 µM	40.3 µM	46.3 µM			32.3 µM		26.3 µM	33.3 µM	29.3 µM									
COC(=O)[C@H](C)NC(=O)[C@H](CSC)N1C(=O)N[C@@H](C(C)C)C1=O	> 100 µM	> 100 µM	> 100 µM		> 100 µM	> 100 µM	> 100 µM	> 100 µM	> 100 µM	> 100 µM									
O=C(c1ccccc1)N1C(=S)N=C(Nc2ccccc2)C1=Nc1ccccc1	> 100 µM	> 100 µM	> 100 µM	> 100 µM		> 100 µM	> 100 µM	> 100 µM	> 100 µM	> 100 µM									
Nc1nc(Nc2ccc(Cl)cc2)sc1C(=O)c1cccs1	> 100 µM			42.2 µM	> 100 µM	47.6 µM	> 100 µM	38.4 µM	> 100 µM	> 100 µM									
C[C@]12CC[C@H](O)C=C1CC[C@@H]1[C@@H]2CC[C@]2(C)C(c3ccc(=O)oc3)CC[C@]12O (stereo not given in full)	0.222 µM	0.0527 µM	0.0289 µM		0.173 µM	0.237 µM		0.102 µM	0.164 µM	0.242 µM									
O=C(O)CC(NC(=O)/C(=C/c1ccccc1O)NC(=O)c1ccccc1)C(=O)O (stereo not given)	> 100 µM	> 100 µM	> 100 µM		> 100 µM		> 100 µM	> 100 µM	> 100 µM	> 100 µM									
Nc1ccc2nc3n(c2c1)C(=O)c1ccccc1-3	> 100 µM	> 100 µM	> 100 µM		> 100 µM	> 100 µM	> 100 µM	> 100 µM	> 100 µM										
Cc1c(C#N)c(N)n(C2OCC(O)C(O)C2O)c(=S)c1C#N (stereo not given)	> 100 µM	> 100 µM	> 100 µM	> 100 µM	> 100 µM	> 100 µM	> 100 µM		> 100 µM	> 100 µM									
CCCCN(CCCC)C(=C(C(Cl)=C(Cl)Cl)[N+](=O)[O-])N(CCCC)CCCC	> 100 µM		> 100 µM			> 100 µM	> 100 µM	> 100 µM											
O=C(Nc1ccc(-n2cc(-c3ccncc3)c(-c3ccc(O)c(Cl)c3)n2)cc1)Nc1cccc(Cl)c1Cl	18 µM	> 32.5 µM	> 32.5 µM	26.5 µM	> 32.5 µM	> 32.5 µM		25 µM	> 32.5 µM	> 32.5 µM	5.8 µM	6.86 µM	6.13 µM	2.84 µM	14.5 µM	4.2 µM	15.8 µM	2.54 µM	3.45 µM
COc1ccc2c(c1)CCN=C2c1ccccc1CCCCl	> 100 µM	> 100 µM	> 100 µM	96.5 µM	> 100 µM	40.1 µM	> 100 µM	> 100 µM	> 100 µM										
COC(=O)C1=C(O)C(C(=O)OC)[C@@]2(O)[C@@H](C(=O)OC)[C@H](C)[C@@H](C)[C@@H]1[C@@H]2C(=O)OC (stereo not given in full)	> 100 µM			> 100 µM	> 100 µM	> 100 µM		> 100 µM		> 100 µM									
CC1(C)[C@@H](Cn2cnc3c(Cl)nc(N)nc32)CC[C@@]1(C)CO	> 100 µM		> 100 µM	44.9 µM	> 100 µM	> 100 µM	> 100 µM	> 100 µM		80.9 µM									
COP(=O)(OC)C12CCOCCN1c1ccccc1C2=O (stereo not given)	> 100 µM	> 100 µM	> 100 µM	> 100 µM	> 100 µM	> 100 µM	> 100 µM	> 100 µM	> 100 µM										
COc1ccccc1N1CCN(CCCNC(=O)c2cc(Cl)c(N)c(Cl)c2)CC1	> 100 µM	> 100 µM	34.1 µM	> 100 µM	> 100 µM	> 100 µM	> 100 µM	> 100 µM	> 100 µM										
O=C(OCc1ccccc1)C(Cc1ccccc1)N(Cc1ccccc1)Cc1ccccc1 (stereo not given)	> 100 µM	> 100 µM	> 100 µM			> 100 µM		> 100 µM	> 100 µM										
N#Cc1c(C#N)c(-c2ccccc2)n(-c2ccccc2)c1N		> 100 µM	> 100 µM	> 100 µM	> 100 µM	> 100 µM	> 100 µM	> 100 µM	> 100 µM	> 100 µM									
COC(=O)C(CC(C)C)NC(=O)C(N)Cc1ccc(OCc2ccccc2)cc1 (stereo not given) (H-Tyr(Bn)-Leu-OMe; configuration not given here)	> 10 µM	> 10 µM	> 10 µM	> 10 µM		> 10 µM	> 10 µM	> 10 µM	> 10 µM	> 10 µM									
Cc1cn([C@H]2C[C@](C)(CO)N(C)O2)c(=O)[nH]c1=O	> 100 µM		> 100 µM	> 100 µM	> 100 µM	> 100 µM	> 100 µM	> 100 µM	> 100 µM	> 100 µM									
COc1ccc(N=NC(=Nc2ccc(F)cc2)c2ccc(N(CCC#N)CCC#N)cc2)cc1	> 100 µM	> 100 µM	> 100 µM	86.4 µM	> 100 µM	> 100 µM	> 100 µM	84.4 µM	77.7 µM										
NC(=O)c1ncn2c1NC(=O)CC2	> 100 µM	> 100 µM	> 100 µM		> 100 µM	> 100 µM		> 100 µM	> 100 µM	> 100 µM									
CN(C)P(=O)(Oc1occc1C(O)Cc1ccccc1)N(C)C (stereo not given)	> 100 µM	> 100 µM	> 100 µM		> 100 µM	> 100 µM	> 100 µM	> 100 µM		> 100 µM									
O=C1c2cccc(NCCNCCO)c2C(=O)c2cccc(NCCNCCO)c21	5.88 µM	5.97 µM	5.77 µM		10.3 µM	5.53 µM	3.95 µM	10.9 µM	6.39 µM	1.65 µM									
